Measurements: the NIST ThermoML archive (doi:10.1016/j.fluid.2014.10.037)
Values joined by “and” are separate entries in the source; they are usually repeats but may differ in a detail not shown here. Identical values can stand only once.

Conditions: Liquid, Closed cell (Static) method

O=Cc1ccco1 [2-furaldehyde]
Conditions | vapor or sublimation pressure [kPa]
353.2 K | 5.9
373.4 K | 13.6
408 K | 46.3

OCc1ccco1 [2-hydroxymethylfuran]
Conditions | vapor or sublimation pressure [kPa]
353.3 K | 2.6
373 K | 7
407.9 K | 30.1

Cc1ccco1 [2-methylfuran]
Conditions | vapor or sublimation pressure
353.8 K | 161.8 kPa and 162.6 kPa
357.5 K | 181.5 kPa and 181.7 kPa
358.3 K | 186.5 kPa
362.4 K | 210.5 kPa
362.5 K | 211.1 kPa
363.1 K | 214.9 kPa
367.2 K | 242.1 kPa
367.4 K | 242.7 kPa
367.9 K | 246 kPa
373.4 K | 285.3 kPa
373.6 K | 286.4 kPa
373.9 K | 288.4 kPa
398.2 K | 527.6 kPa
398.4 K | 530.3 kPa
398.8 K | 533.8 kPa
403 K | 587.6 kPa
403.2 K | 591.7 kPa
403.3 K | 592.3 kPa
408.4 K | 667.2 kPa
408.6 K | 670.2 kPa
409 K | 676.7 kPa

c1ccoc1 [furan]
Conditions | vapor or sublimation pressure [kPa]
353.4 K | 455.1
373.1 K | 735.6
407.9 K | 1513.3

CC(C)O [propan-2-ol]
Conditions | vapor or sublimation pressure [kPa]
353.3 K | 93.8
373.5 K | 200.1
408.3 K | 593.8
